Experimental data: US20220031800A1, “PEPTIDES FOR TREATING NON-EXUDATIVE MACULAR DEGENERATION AND OTHER DISORDERS OF THE EYE” (Allegro Pharmaceuticals, LLC, priority 2019, published 2022)
Square brackets hold non-standard residues; d marks the D form. Peptide text beside a SMILES is read from it. Cya = N[C@@H](CS(=O)(=O)O)C(=O)O

Experiments:
primary human RPE cells = test: WST-1 cell viability of primary human RPE cells exposed to hydroquinone; type: cell-based; details: 0.4 mM risuteganib co-treatment with HQ 125-180 uM
Procedure: Purpose: To determine if risuteganib protects against hydroquinone (HQ)-mediated cell injury, elevated ROS level and reduced mitochondrial membrane potential (Δψm) in cultured human RPE cells. Elevated ROS levels increase oxidative stress in the cells, leading to reduced cell health and cell death. Loss of ΔΨm is a marker for early cell death. Methods: Primary human RPE cells were seeded on collagen-coated 96-well plates in triplicates at 8K, 10K and […] cells/well, respectively. Cells reached 80% to 100% confluence 24 hours after plating, and confluent cells were then grown for an additional 4 or 5 days until growth was density arrested. On day 6 after plating, cells in the plate upper half were loaded with 20 μM CM-H2DCFDA (measures ROS level) and in the plate lower half with 10 μM JC-1 (measures Δψm) for 30 minutes at 37° C. […] For the ROS and Δψm assays, a fluorescence plate reader was used to quantify ROS production (490-nm excitation, 522-nm emission), and green monomer of JC-1 (490-nm excitation, 522-nm emission) and red JC-1 aggregate (535-nm excitation, 590-nm emission), respectively. […] The WST reagent was quantified with a plate reader at 440 nm and a reference wavelength at 690 nm. Data were normalized to untreated control as 100% and were expressed as the mean±SD.

[1] = system: human RPE cells (ARPE-19); test: Trypan blue viability of human RPE cells (ARPE-19) exposed to hydrogen peroxide; type: cell-based; details: 1.0 mg/mL risuteganib alone
Procedure: Purpose: Investigate cytoprotective properties of risuteganib in human RPE cells (ARPE-19) exposed to hydrogen peroxide, which is a reactive oxygen species that can induce cell death at elevated levels. Methods: ARPE-19 cells were cultured in laminin-coated trans-wells for 2 weeks to induce differentiation. Cells were then exposed to the experimental conditions: […]

C[C@@H](O)[C@H](NC(=O)[C@H](CS(=O)(=O)O)NC(=O)CNC(=O)[C@H](CCCNC(=N)N)NC(=O)CN)C(=O)N1CCC[C@H]1C(=O)O [risuteganib, Glycyl-L-arginylglycyl-3-sulfo-L-alanyl-L-threonyl-L-proline] (H-GRG[Cya]TP-OH)
Improvement of HQ-reduced cell viability (primary human RPE cells): 16%
Change in cell viability, treatment alone [1]: did not induce detectable change in cell viability
